This note sets out measurements from US7423159B2, “Agent for preventing or treating neuropathy” (Takeda Pharmaceutical Company Limited, priority 2002, dated 2008).

Usually melting point stands for the temperature, or range, at which the solid turns liquid.

Molecule `CSCc1ccc(NC(=O)/C=C/c2cnn(C)c2-c2ccc(SC)cc2)cc1` [Example 207, (2E)-3-{1-methyl-5-[4-(methylthio)phenyl]-1H-pyrazol-4-yl}-N-{4-[(methylthio)methyl]phenyl}acrylamide] had a melting point of 145 to 146 °C.
`CCOC(=O)Cc1ccc(NC(=O)CCc2cnn(-c3ccccc3)c2-c2ccccc2)cc1` [Example 81, N-[4-(Ethoxycarbonylmethyl)phenyl]-3-(1,5-diphenyl-1H-pyrazol-4-yl)propionamide] came in with a melting point of 143 to 144 °C.
For the molecule `CCn1nnnc1Cc1ccc(NC(=O)/C=C/c2cnn(C)c2-c2ccc(F)cc2)cc1` [Example 103, (2E)-N-{4-[(1-Ethyl-1H-tetrazol-5-yl)methyl]phenyl}-3-[5-(4-fluorophenyl)-1-methyl-1H-pyrazol-4-yl]acrylamide], the melting point was 206 to 207 °C.
In turn, `Cn1ncc(/C=C/C(=O)Nc2ccc(CO)cc2)c1-c1ccc(F)cc1` [Example 153, (2E)-3-[5-(4-Fluorophenyl)-1-methyl-1H-pyrazol-4-yl]-N-[4-(hydroxymethyl)phenyl]acrylamide] showed a melting point of 117 to 118 °C.
`Cn1ncc(/C=C/C(=O)Nc2ccc(Cn3nc4ccccc4n3)cc2)c1-c1ccc(F)cc1` [Example 179, (2E)-N-[4-(2H-1,2,3-Benzotriazol-2-ylmethyl)phenyl]-3-[5-(4-fluorophenyl)-1-methyl-1H-pyrazol-4-yl]acrylamide] showed a melting point of 222 to 223 °C.
`Cn1ncc(/C=C/C(=O)Nc2ccc3c(c2)oc(=O)n3C)c1-c1ccc(F)cc1` [Example 122, (2E)-3-[5-(4-Fluorophenyl)-1-methyl-1H-pyrazol-4-yl]-N-(3-methyl-2-oxo-2,3-dihydro-1,3-benzoxazol-6-yl)acrylamide]: the melting point is 265 to 266 °C.
The molecule `CCOP(=O)(Cc1ccc(NC(=O)/C=C/c2cnn(C)c2-c2cccc(Cl)c2)cc1)OCC` returned a melting point of 214 to 216 °C.
`Cn1ncc(/C=C/C(=O)Nc2ccc(CS(=O)(=O)c3ccccc3)cc2)c1-c1ccc(F)cc1` [Example 225, (2E)-3-[5-(4-Fluorophenyl)-1-methyl-1H-pyrazol-4-yl]-N-{4-[(phenylsulfonyl)methyl]phenyl}acrylamide] registered a melting point of 223 to 224 °C.
`CCOP(=O)(OCC)C(OC)c1ccc(NC(=O)/C=C/c2cnn(C)c2-c2ccc(F)cc2)cc1` (stereo not drawn): the melting point was in the range of 200 to 201 °C.
Molecule `COP(=O)(Cc1ccc(NC(=O)/C=C/c2cnn(C)c2-c2ccc(C)cc2)cc1)OC` had a melting point of 207 to 209 °C.
In turn, `Cn1ncc(/C=C/C(=O)Nc2ccc(Cc3nccs3)cc2)c1-c1ccc(F)cc1` [Example 128, (2E)-3-[5-(4-Fluorophenyl)-1-methyl-1H-pyrazol-4-yl]-N-{4-[(1,3-thiazol-2-yl)methyl]phenyl}acrylamide] yielded a melting point of 209 to 210 °C.
The figure for `Cn1ncc(/C=C/C(=O)Nc2ccc(Cc3nc(C(N)=O)cs3)cc2)c1-c1ccc(F)cc1` [Example 132, 2-[4-({(2E)-3-[5-(4-fluorophenyl)-1-methyl-1H-pyrazol-4-yl]prop-2-enoyl}amino)benzyl]-1,3-thiazole-4-carboxamide] is 159 to 160 °C; for `Cn1ncc(/C=C/C(=O)Nc2ccc(CCc3nnco3)cc2)c1-c1ccc(F)cc1` [Example 89, (2E)-3-[5-(4-Fluorophenyl)-1-methyl-1H-pyrazol-4-yl]-N-{4-[2-(1,3,4-oxadiazol-2-yl)ethyl]phenyl}acrylamide] it is 177 to 178 °C; for `Cn1ncc(/C=C/C(=O)Nc2ccc(C(N)=O)cc2)c1-c1ccc(F)cc1` [Example 183, 4-({(2E)-3-[5-(4-Fluorophenyl)-1-methyl-1H-pyrazol-4-yl]prop-2-enoyl}amino)benzamide] it is 276 to 278 °C.
`Cn1ncc(/C=C/C(=O)Nc2ccc(Cn3ccnc3CO)cc2)c1-c1ccc(F)cc1` [Example 200, (2E)-3-[5-(4-Fluorophenyl)-1-methyl-1H-pyrazol-4-yl]-N-(4-{[2-(hydroxymethyl)-1H-imidazol-1-yl]methyl}phenyl)acrylamide] showed a melting point of 229 to 230 °C.
